Consider eleven compounds from patent US12209102B2, “Heterocyclic compounds and uses thereof” (Kumquat Biosciences Inc., priority 2022, dated 2025).

Structures are written as SMILES. A value given as a limit tells only on which side of the number the result lay.

For one assay, the target named is T1, K-Ras G12D (Homo sapiens, UniProt P01116, G12D).
T1 construct: made in house; host or cells: E. coli BL21 (DE3)
The assay is described as follows: HTRF resonance energy transfer assay, K-Ras G12D / SOS1 interaction. The following applies: HTRF assay of Example 5; read-out: IC50 against K-Ras G12D. Format: biochemical. The essentials: (§1)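 GST-tagged K-Ras (WT or mutant) bound to anti-GST-Eu donor was mixed with His-hSOS1 bound to anti-6His-XL665 acceptor in ~5 mM HEPES pH 7.4, 150 mM NaCl, 1 mM DTT, 0.05% BSA, 0.0025% Igepal. HTRF (ex 337, em 620/665 nm) was read after ~10 min or longer. IC50 came from the 665/620 ratio over duplicates from 10 μM to 0.01 μM.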

The next assay has as its target T2, K-Ras G12S (Homo sapiens, UniProt P01116, G12S).
T2 construct: made in house; host or cells: E. coli BL21 (DE3)
As to the kind of experiment: HTRF resonance energy transfer assay, K-Ras G12S / SOS1 interaction. The assay is classed as biochemical. The following applies: HTRF assay of Example 5; read-out: IC50 against K-Ras G12S. The essentials:
as §1

A further assay deals with T3, K-Ras G12V (Homo sapiens, UniProt P01116, G12V).
T3 construct: made in house; host or cells: E. coli BL21 (DE3)
T3 sequence (P01116 1-188 isoform P01116-2 G12V): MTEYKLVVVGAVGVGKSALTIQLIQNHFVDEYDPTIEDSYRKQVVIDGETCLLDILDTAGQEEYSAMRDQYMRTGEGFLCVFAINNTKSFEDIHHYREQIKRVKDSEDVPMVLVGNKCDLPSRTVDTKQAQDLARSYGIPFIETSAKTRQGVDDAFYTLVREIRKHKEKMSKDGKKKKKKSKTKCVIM
As to the kind of experiment: HTRF resonance energy transfer assay, K-Ras G12V / SOS1 interaction. The assay is classed as biochemical. Conditions: HTRF assay of Example 5; read-out: IC50 against K-Ras G12V. A digest of the protocol: as §1
On the technique in general: In TR-FRET formats the signal depends on donor and acceptor labels being close together.

A further assay deals with T4, K-Ras WT (Homo sapiens, UniProt P01116).
T4 construct: made in house; host or cells: E. coli BL21 (DE3)
T4 sequence (P01116 1-188 isoform P01116-2): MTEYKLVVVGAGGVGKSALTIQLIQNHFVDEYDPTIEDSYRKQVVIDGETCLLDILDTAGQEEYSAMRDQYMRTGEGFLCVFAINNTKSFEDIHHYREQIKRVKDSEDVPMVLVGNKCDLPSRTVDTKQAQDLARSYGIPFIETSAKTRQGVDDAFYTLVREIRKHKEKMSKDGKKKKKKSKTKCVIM
As to the kind of experiment: HTRF resonance energy transfer assay, K-Ras WT / SOS1 interaction. Format: biochemical. Conditions: HTRF assay of Example 5; read-out: IC50 against K-Ras WT. A digest of the protocol:
as §1

The subject of the next assay is A549 cells. The assay is described as follows: Ras cellular assay, growth of cells with K-Ras G12S mutation (CellTiter-Glo). Format: cell-based. The following applies: Homo sapiens, cell growth, Example 9, G12S mutation, read-out: IC50 against A549 cells. A digest of the protocol: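 A549 cells (K-Ras G12S) in RPMI-1640 with 10% heat-inactivated FBS, seeded e.g. 800 per well in standard or ultra-low-attachment 384-well plates, treated next day with a dilution series (e.g. 10-point, 3-fold). Viability by CellTiter-Glo luminescence about 6 days later; IC50 from four-parameter fit.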
Background: Cellular ATP, detected with luciferase, serves as a proxy for viable cell number.

A further assay relates to SW620 cells. As to the kind of experiment: Ras cellular assay, growth of cells with K-Ras G12V mutation (CellTiter-Glo). The following applies: Homo sapiens, SW-620; cell growth, Example 9, G12V mutation; read-out: IC50 against SW620 cells. The assay is classed as cell-based. A digest of the protocol:
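SW620 (K-Ras G12V) cells, e.g. 800/well in RPMI-1640 with 10% heat-inactivated FBS on standard or ultra-low attachment plates, were dosed the day after plating with e.g. a 10-point 3-fold series. Viability by CellTiter-Glo luminescence about 6 days later; IC50 from four-parameter fit.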

T1 sequence (P01116 1-188 isoform P01116-2 G12D): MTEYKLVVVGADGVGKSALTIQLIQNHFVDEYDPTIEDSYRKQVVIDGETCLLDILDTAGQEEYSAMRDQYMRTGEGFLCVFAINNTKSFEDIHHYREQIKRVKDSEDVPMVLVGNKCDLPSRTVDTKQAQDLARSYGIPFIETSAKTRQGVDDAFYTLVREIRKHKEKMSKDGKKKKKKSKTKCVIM
T2 sequence (P01116 1-188 isoform P01116-2 G12S): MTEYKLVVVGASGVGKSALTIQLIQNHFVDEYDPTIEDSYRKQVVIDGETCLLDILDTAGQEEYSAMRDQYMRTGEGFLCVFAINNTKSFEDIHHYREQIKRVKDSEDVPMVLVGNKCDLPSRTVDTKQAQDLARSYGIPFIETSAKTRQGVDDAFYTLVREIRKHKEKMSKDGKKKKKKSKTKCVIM

By IC50 is commonly meant the concentration needed to halve the response being measured. On to `C[C@H](Oc1nc2c3c(c(Cl)c(-c4ccc(F)c5sc(N)c(C#N)c45)c(F)c3n1)OCCN2C1CCCN(C(=O)C2CCC2)C1)[C@@H]1CCCN1C` (stereo partly drawn) [Compound 862, 2-amino-4-(8-chloro-4-(1-(cyclobutanecarbonyl)piperidin-3-yl)-10-fluoro-2-((S)-1-((S)-1-methylpyrrolidin-2-yl)ethoxy)-5,6-dihydro-4H-[1,4]oxazepino[5,6,7-de]quinazolin-9-yl)-7-fluorobenzo[b]thiophene-3-carbonitrile], for which the IC50 on K-Ras G12D is less than 100 nM; at K-Ras G12S it was less than 100 nM; on K-Ras G12V, less than 100 nM; at K-Ras WT, less than 100 nM; in the assay with A549 cells it was less than 5000 nM; with SW620 cells, less than 5000 nM.
As to `C[C@H](Oc1nc2c3c(c(Cl)c(-c4ccc(F)c5sc(N)c(C#N)c45)c(F)c3n1)OCCN2C1CCCOC1)[C@@H]1CCCN1C` (stereo partly drawn) [Compound 880, 2-amino-4-(8-chloro-10-fluoro-2-((S)-1-((S)-1-methylpyrrolidin-2-yl)ethoxy)-4-(tetrahydro-2H-pyran-3-yl)-5,6-dihydro-4H-[1,4]oxazepino[5,6,7-de]quinazolin-9-yl)-7-fluorobenzo[b]thiophene-3-carbonitrile], the IC50 is less than 100 nM at K-Ras G12D; less than 100 nM at K-Ras G12S; less than 100 nM at K-Ras G12V; less than 100 nM on K-Ras WT; less than 5000 nM in the assay on A549 cells; less than 5000 nM with SW620 cells.
Take `COCC1COc2c(Cl)c(-c3ccc(F)c4sc(N)c(C#N)c34)c(F)c3nc(OC[C@@]45CCCN4C[C@H](F)C5)nc(c23)N1C` (stereo partly drawn) [Compound 887, 2-amino-4-(8-chloro-10-fluoro-2-(((2R,7aS)-2-fluorotetrahydro-1H-pyrrolizin-7a(5H)-yl)methoxy)-5-(methoxymethyl)-4-methyl-5,6-dihydro-4H-[1,4]oxazepino[5,6,7-de]quinazolin-9-yl)-7-fluorobenzo[b]thiophene-3-carbonitrile]: the IC50 on K-Ras G12D was less than 100 nM; on K-Ras G12S, less than 100 nM; on K-Ras G12V, less than 100 nM; on K-Ras WT, less than 100 nM; in the assay on A549 cells, less than 5000 nM; in the assay on SW620 cells, less than 5000 nM.
Regarding `CN(CCN1CCOc2c(Cl)c(-c3ccc(F)c4sc(N)c(C#N)c34)c(F)c3nc(OC[C@@]45CCCN4C[C@H](F)C5)nc1c23)C(=O)C1CCC1` [Compound 895, N-(2-(9-(2-amino-3-cyano-7-fluorobenzo[b]thiophen-4-yl)-8-chloro-10-fluoro-2-(((2R,7aS)-2-fluorotetrahydro-1H-pyrrolizin-7a(5H)-yl)methoxy)-5,6-dihydro-4H-[1,4]oxazepino[5,6,7-de]quinazolin-4-yl)ethyl)-N-methylcyclobutanecarboxamide], the IC50 at K-Ras G12D was less than 100 nM; on K-Ras G12S, less than 100 nM; on K-Ras G12V, less than 100 nM; on K-Ras WT, less than 100 nM; in the assay on A549 cells, less than 5000 nM; in the assay on SW620 cells it was less than 5000 nM.
With `N#Cc1c(N)sc2c(F)ccc(-c3c(Cl)c4c5c(nc(OC[C@@]67CCCN6C[C@H](F)C7)nc5c3F)N(Cc3cccnc3)CCO4)c12` [Compound 897, 2-amino-4-(8-chloro-10-fluoro-2-(((2R,7aS)-2-fluorotetrahydro-1H-pyrrolizin-7a(5H)-yl)methoxy)-4-(pyridin-3-ylmethyl)-5,6-dihydro-4H-[1,4]oxazepino[5,6,7-de]quinazolin-9-yl)-7-fluorobenzo[b]thiophene-3-carbonitrile], the IC50 is less than 100 nM on K-Ras G12D; less than 100 nM on K-Ras G12S; less than 100 nM at K-Ras G12V; less than 100 nM on K-Ras WT; less than 5000 nM in the assay with A549 cells; less than 5000 nM with SW620 cells.
As for `N#Cc1c(N)sc2c(F)ccc(-c3c(Cl)c4c5c(nc(OCC67CCCN6C[C@H](F)C7)nc5c3F)N(C3CCCOCC3)CCO4)c12` (stereo partly drawn) [Compound 902, 2-amino-4-(8-chloro-10-fluoro-2-(((2R)-2-fluorotetrahydro-1H-pyrrolizin-7a(5H)-yl)methoxy)-4-(oxepan-4-yl)-5,6-dihydro-4H-[1,4]oxazepino[5,6,7-de]quinazolin-9-yl)-7-fluorobenzo[b]thiophene-3-carbonitrile], the IC50 at K-Ras G12D was less than 100 nM; on K-Ras G12S, less than 100 nM; on K-Ras G12V, less than 100 nM; at K-Ras WT, less than 100 nM; with A549 cells, less than 5000 nM; in the assay on SW620 cells, less than 5000 nM.
Turning to `Cc1cc(N)nc(-c2c(Cl)c3c4c(nc(OC[C@@]56CCCN5C[C@H](F)C6)nc4c2F)N(CC(F)F)CCO3)c1I` [Compound 909, 6-(8-chloro-4-(2,2-difluoroethyl)-10-fluoro-2-(((2R,7aS)-2-fluorotetrahydro-1H-pyrrolizin-7a(5H)-yl)methoxy)-5,6-dihydro-4H-[1,4]oxazepino[5,6,7-de]quinazolin-9-yl)-5-iodo-4-methylpyridin-2-amine], the IC50 on K-Ras G12D was less than 100 nM; at K-Ras G12S it was less than 100 nM; at K-Ras G12V, less than 100 nM; on K-Ras WT, less than 100 nM; in the assay on A549 cells, less than 5000 nM; in the assay with SW620 cells, less than 5000 nM.
With `N#Cc1c(N)sc2c(F)ccc(-c3c(Cl)c4c5c(nc(OC[C@@]67CCCN6C[C@H](F)C7)nc5c3F)N(C3CCC(NC(=O)[C@@H]5N[C@H]5C5CC5)C3)CCO4)c12` (stereo partly drawn) [Compound 920, (2R,3S)—N-(3-(9-(2-amino-3-cyano-7-fluorobenzo[b]thiophen-4-yl)-8-chloro-10-fluoro-2-(((2R,7aS)-2-fluorotetrahydro-1H-pyrrolizin-7a(5H)-yl)methoxy)-5,6-dihydro-4H-[1,4]oxazepino[5,6,7-de]quinazolin-4-yl)cyclopentyl)-3-cyclopropylaziridine-2-carboxamide], the IC50 was less than 100 nM at K-Ras G12D; less than 100 nM on K-Ras G12S; less than 100 nM on K-Ras G12V; less than 100 nM on K-Ras WT; less than 5000 nM with A549 cells; less than 5000 nM in the assay on SW620 cells.
As for `N#Cc1c(N)sc2c(F)ccc(-c3c(Cl)c4c5c(nc(OC[C@@]67CCCN6C[C@H](F)C7)nc5c3F)N(C3CCN(S(=O)(=O)C5CC5)C3)CCO4)c12` (stereo partly drawn) [Compound 922, 2-amino-4-(8-chloro-4-(1-(cyclopropylsulfonyl)pyrrolidin-3-yl)-10-fluoro-2-(((2R,7aS)-2—fluorotetrahydro-1H-pyrrolizin-7a(5H)-yl)methoxy)-5,6-dihydro-4H-[1,4]oxazepino[5,6,7-de]quinazolin-9-yl)-7-fluorobenzo[b]thiophene-3-carbonitrile], the IC50 is less than 100 nM on K-Ras G12D; less than 100 nM on K-Ras G12S; less than 100 nM on K-Ras G12V; less than 100 nM at K-Ras WT; less than 5000 nM in the assay on A549 cells; less than 5000 nM in the assay on SW620 cells.
Take `C[C@H](Oc1nc2c3c(c(Cl)c(-c4ccc(F)c5sc(N)c(C#N)c45)c(F)c3n1)OCCN2C1CCOC1)[C@@H]1CCCN1C` (stereo partly drawn) [Compound 924, 2-amino-4-(8-chloro-10-fluoro-2-((S)-1-((S)-1-methylpyrrolidin-2-yl)ethoxy)-4-(tetrahydrofuran-3-yl)-5,6-dihydro-4H-[1,4]oxazepino[5,6,7-de]quinazolin-9-yl)-7-fluorobenzo[b]thiophene-3-carbonitrile]: the IC50 is less than 100 nM on K-Ras G12D; less than 100 nM on K-Ras G12S; less than 100 nM on K-Ras G12V; less than 100 nM at K-Ras WT; less than 5000 nM in the assay on A549 cells; less than 5000 nM in the assay on SW620 cells.
For `CC1Oc2c(Cl)c(-c3ccc(F)c4sc(N)c(C#N)c34)c(F)c3nc(OC[C@@]45CCCN4C[C@H](F)C5)nc(c23)N(C2CC2)C1C` (stereo partly drawn) [Compound 929, 2-amino-4-(8-chloro-4-cyclopropyl-10-fluoro-2-(((2R,7aS)-2-fluorotetrahydro-1H-pyrrolizin-7a(5H)-yl)methoxy)-5,6-dimethyl-5,6-dihydro-4H-[1,4]oxazepino[5,6,7-de]quinazolin-9-yl)-7-fluorobenzo[b]thiophene-3-carbonitrile], the IC50 at K-Ras G12D was less than 100 nM; on K-Ras G12S it was less than 100 nM; at K-Ras G12V, less than 100 nM; on K-Ras WT, less than 100 nM; in the assay on A549 cells, less than 5000 nM; in the assay with SW620 cells it was less than 5000 nM.
